The record followed here is PMC5272797 (Biochemical pharmacology, 2016).

The structures appear in SMILES notation.

Holding throughout (assay type): biochemical
For one assay, the target named is EGFR T790M (Homo sapiens, UniProt P00533, T790M). In words: Z'-LYTE Tyr4 peptide kinase assay, single dose […]. To be noted: read-out: Mean inhibition at 10 μM (%).
A further assay addresses EGFR (ErbB1) (Homo sapiens, UniProt P00533). In words: Z'-LYTE Tyr4 peptide kinase assay, 10-point dose-response.
A further assay deals with EGFR L858R (Homo sapiens, UniProt P00533, L858R). In words: Z'-LYTE Tyr4 peptide kinase assay, single dose […]. The note with it: read-out: Mean inhibition at 10 μM (%).
Chain of EGFR L858R (P00533 668-1210 L858R limits assumed): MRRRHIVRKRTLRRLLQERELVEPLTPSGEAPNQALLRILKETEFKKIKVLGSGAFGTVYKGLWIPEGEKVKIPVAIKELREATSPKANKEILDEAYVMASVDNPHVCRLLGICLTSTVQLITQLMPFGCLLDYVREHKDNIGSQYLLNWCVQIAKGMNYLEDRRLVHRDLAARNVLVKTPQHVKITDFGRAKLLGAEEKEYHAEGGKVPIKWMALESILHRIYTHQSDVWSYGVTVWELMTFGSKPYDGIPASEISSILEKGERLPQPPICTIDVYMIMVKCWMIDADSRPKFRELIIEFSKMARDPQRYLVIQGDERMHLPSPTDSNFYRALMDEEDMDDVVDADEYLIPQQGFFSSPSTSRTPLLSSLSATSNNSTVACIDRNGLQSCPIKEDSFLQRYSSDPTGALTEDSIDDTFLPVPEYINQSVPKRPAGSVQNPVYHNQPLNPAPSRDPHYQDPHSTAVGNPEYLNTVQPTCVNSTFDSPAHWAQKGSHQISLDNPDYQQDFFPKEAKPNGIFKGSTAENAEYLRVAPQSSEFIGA
Another assay has as its target EGFR L861Q (Homo sapiens, UniProt P00533, L861Q). In words: Z'-LYTE Tyr4 peptide kinase assay, single dose […]. The note with it: read-out: Mean inhibition at 10 μM (%).

Chain of EGFR L861Q (P00533 668-1210 L861Q limits assumed): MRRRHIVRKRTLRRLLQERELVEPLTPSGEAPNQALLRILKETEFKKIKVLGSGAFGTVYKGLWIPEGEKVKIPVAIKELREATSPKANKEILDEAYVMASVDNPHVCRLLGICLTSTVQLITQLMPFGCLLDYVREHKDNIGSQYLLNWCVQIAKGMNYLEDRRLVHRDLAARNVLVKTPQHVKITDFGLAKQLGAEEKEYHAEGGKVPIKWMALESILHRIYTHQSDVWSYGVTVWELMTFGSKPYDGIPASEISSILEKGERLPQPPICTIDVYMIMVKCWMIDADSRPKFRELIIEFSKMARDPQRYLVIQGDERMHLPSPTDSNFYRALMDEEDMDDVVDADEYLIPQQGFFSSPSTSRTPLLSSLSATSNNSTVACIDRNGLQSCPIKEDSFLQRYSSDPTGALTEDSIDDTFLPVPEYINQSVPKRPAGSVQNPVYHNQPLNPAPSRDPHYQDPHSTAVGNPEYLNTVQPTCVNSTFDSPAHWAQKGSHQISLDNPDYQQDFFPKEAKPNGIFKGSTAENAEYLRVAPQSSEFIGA
Chain of EGFR T790M (P00533 668-1210 T790M limits assumed): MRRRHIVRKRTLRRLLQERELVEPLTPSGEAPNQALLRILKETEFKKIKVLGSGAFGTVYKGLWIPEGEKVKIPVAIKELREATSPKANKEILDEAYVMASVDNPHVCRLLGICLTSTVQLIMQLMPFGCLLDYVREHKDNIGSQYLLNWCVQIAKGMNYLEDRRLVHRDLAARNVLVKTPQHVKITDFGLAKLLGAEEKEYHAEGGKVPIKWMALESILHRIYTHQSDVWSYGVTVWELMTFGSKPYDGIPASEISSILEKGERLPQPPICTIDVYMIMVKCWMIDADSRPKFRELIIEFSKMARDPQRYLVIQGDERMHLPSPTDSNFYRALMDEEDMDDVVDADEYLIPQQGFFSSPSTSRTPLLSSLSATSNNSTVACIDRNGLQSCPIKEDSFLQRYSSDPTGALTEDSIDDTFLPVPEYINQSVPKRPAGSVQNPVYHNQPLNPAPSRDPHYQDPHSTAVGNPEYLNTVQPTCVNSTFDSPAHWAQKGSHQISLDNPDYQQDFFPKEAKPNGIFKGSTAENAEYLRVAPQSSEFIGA
Chain of EGFR (ErbB1) (P00533 668-1210): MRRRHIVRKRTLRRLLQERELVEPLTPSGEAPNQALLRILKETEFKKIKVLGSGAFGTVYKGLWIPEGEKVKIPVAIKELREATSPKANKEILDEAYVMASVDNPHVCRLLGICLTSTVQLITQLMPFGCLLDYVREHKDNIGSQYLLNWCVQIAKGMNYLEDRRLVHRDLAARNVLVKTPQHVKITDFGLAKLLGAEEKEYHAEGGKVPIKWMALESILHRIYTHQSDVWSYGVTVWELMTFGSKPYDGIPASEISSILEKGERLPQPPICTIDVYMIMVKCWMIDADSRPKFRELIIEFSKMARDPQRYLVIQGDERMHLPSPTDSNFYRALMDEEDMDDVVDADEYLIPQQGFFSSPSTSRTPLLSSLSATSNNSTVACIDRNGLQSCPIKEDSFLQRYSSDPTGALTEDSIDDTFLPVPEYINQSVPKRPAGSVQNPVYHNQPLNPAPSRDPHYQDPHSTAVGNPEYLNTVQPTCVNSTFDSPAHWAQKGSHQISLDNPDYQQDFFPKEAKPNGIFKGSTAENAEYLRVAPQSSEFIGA

Turning to `CCCC(=O)O[C@]1(C)CC[C@H](C(C)C)[C@@H]2[C@H]1[C@H]1C[C@](C)(O)[C@@H](O)CC[C@@](C)(OC(C)=O)[C@@H]2O1` [compound 1, Pachycladin A], the inhibition – broadly, the relative decrease from the control value, in per cent – at 10 µM worked out at 93% on EGFR T790M, 98% on EGFR L858R and 93% on EGFR L861Q. Moreover, on EGFR (ErbB1), half-maximal inhibition (IC50) required 570 nM.
